The source of these data is US9840547B2, “Hepatic insulin sensitizing substance and test meal for insulin sensitization” (SciMar Ltd., priority 2013, dated 2017).

For assay [1] the following is noted: literature; cited from earlier work.
Assay [2] in a line: Time course of hypoglycemic action in humans. The class given is in vivo. The settings on record: after an intravenous injection.
Assay [3] can be described thus: Time course of hypoglycemic action in rats. In kind it is in vivo. The conditions noted are these: after an intravenous injection.
For assay [4], the system named is cultured L6 skeletal muscle cells. The assay is described as follows: Plasma HISS activity on glucose uptake in cultured L6 skeletal muscle cells (2-NBDG bioassay). In kind it is cell-based. The settings on record: plasma insulin concentration versus RFU, linear regression.
Description: Individual plasma samples were tested in 1-3 wells/sample with 2 measurements/well.

On to bone morphogenetic protein 9, for which the hypoglycemic action result in assay [1] is reported as “no rapid hypoglycemic effect”.
Take insulin: the “time at which action returns to baseline” value came out at 90 min in assay [2] and 35 min in assay [3]. Further, the “stimulation of glucose uptake response in L6 cells” value in assay [4] is “not stimulated by insulin”.
